Common to all, as to format: in vivo, Cryptotis parva
Series [1] has as its system Least Shrew. Description: Emetic effect of arachidonic acid metabolites and leukotrienes in the Least Shrew. The following applies: found experimentally. How it is done: Varying doses of leukotriene LTC4 were administered by intraperitoneal injection, and dose-response emetic effects recorded for 30 min post-injection observation period. The graph in FIG. 20 depicts enhancements in the frequency (mean±S.E.M.) of emesis.

The test system of series [2] is Least Shrew. In words: Dose response emesis and scratching studies with tachykinin receptor agonists. The following applies: for increase in the frequency of vomiting vs vehicle control: 30 min observation. The source says: The present protocols were based upon preliminary studies as well as published findings in the Least Shrew. Darmani, 2001a; Darmani et al., 69 Pharmacol. Biochem. Behay. 239-49 (2001b). On the test day, the shrews were allowed to acclimate to the test laboratory for at least one hour prior to experimentation. To habituate the animals to the test environment, each shrew was randomly selected and transferred to a 20 cm×18 cm×21 cm clean clear plastic cage and offered four mealworms (Tenebrio sp.) 30 min prior to experimentation. […]
(§1) The data on the frequency of emesis and scratchings were analyzed by the Kruskal-Wallis (KW) nonparametric one-way analysis of variance (ANOVA) and post hoc analysis by Dunn's multiple comparisons test or Mann-Whitney test. A P value of <0.05 was necessary to attain statistical significance. The incidence of emesis (number of shrews vomiting) was analyzed by the Fisher's exact test to determine whether there were differences between groups. When appropriate, pairwise comparisons were also made by this method. Two-way analysis of variance using the Kruskal-Wallis or Fisher's exact tests were initially utilized to respectively analyze the dose-response results of GR73632 on emesis and scratching behaviors, and percentage of shrews vomiting in saporin- and corresponding saline-pretreated control shrews. […] For some emesis data, the two-tailed Mann-Whitney test was used. The SP tissue concentration data were analyzed by a one-way ANOVA followed by Dunnett's t test as post hoc analysis. Fos-IR was quantified by counting immunopositive nuclei within each hemisection containing the region of interest (ROI). The number of nuclei was averaged across sections with the ROI for each animal, and the group mean and standard error obtained.

Series [3] can be described thus: Analysis of SP in serum, gut and brain tissues following intraperitoneal injection of an emetic dose of SP. The following applies: SP 50 mg/kg i.p. How it is done:
Different groups of shrews were injected with a 50 mg/kg emetic dose of SP (i.p.) and were sacrificed at 5 min, 15 min, and 30 min (n=5-6 animals per group) post injection. Blood serum as well as two different brain (frontal cortex and brain stem) and gut (duodenum and jejunum) tissue samples were collected for the determination of SP levels relative to a saline-treated shrew control group (n=6). The brain SP concentration was determined in all of the cited exposure times, whereas gut SP tissue levels were analyzed for the 0 min (control), 5 min and 15 min exposure periods Likewise, serum SP concentrations were determined at the 0 min, 5 min and 15 min exposure periods as well as in a 10 min SP-exposed shrew group.
To collect blood, shrews were rapidly euthanized with isoflurane (Vedco, St. Joseph, Mo.) one at a time. Then, each shrew was laid on its back and taped to a metal tray, and cut transversely under the diaphragm and along the sides towards the arms to allow the ribcage to be lifted away. The heart was then held with forceps, and a 0.5 cc syringe with 28 ga hypodermic needle was inserted into the left ventricle. Blood was pulled gently into the syringe directly from the ventricle until the descending aorta appeared clear (approximately 50 μl -100 μl total volume), and rapidly transferred to a non-heparinized tube for centrifugation and removal of red blood cells. Brain and gut tissue were rapidly dissected following blood collection and decapitation. Preliminary sample preparation procedures were carried out to optimize detection conditions.
Because proteases can be deactivated by heat (El-Salhy, 107 Upsala J. Med. Sci. 101-10 (2002)), at basic pH (Crawford & Kalmakoff, 24 J. Virol. 412-15 (1977)), and in the presence of EDTA (Wei & Bobek, 49 Antimicrob. Agents Chemother. 2336-42 (2005)), the entire intestine was immediately immersed in a 70° C. preheated, 5 ml solution of normal saline containing […] EDTA at pH8.0. After a 5 min exposure, each gut was thrice flushed and rinsed with 5 ml of the saline solution and then allowed to cool down naturally to room temperature. Then, each gut was dissected and the duodenum and jejunum samples were placed separately in test tubes containing 1 ml assay buffer. The dissected frontal cortex and brain stem samples were placed in different test tubes containing 0.5 ml assay buffer. Each sample was homogenized using a tissue tearor (Biospec) set at level 5 for 15sec. The homogenates were then centrifuged at 17,000×g for 15 min at 4° C. The supernatants were obtained and saved at −80° C. until used for the EIA detection of SP. Samples were analyzed for SP using the “Correlate-EIA” kit from Assay Designs using a microplate reader.
as §1

As to `CCCCC[C@H](O)/C=C/[C@H]1[C@H](O)CC(=O)[C@@H]1C/C=C\CCCC(=O)O` [PGE2], the “emesis in the Least Shrew” value in series [1] is “non-emetic”.

In the case of `CCCCC[C@H](O)/C=C/[C@@H]1[C@@H](C/C=C\CCCC(=O)O)[C@@H](O)C[C@H]1O` [PGF2α], the “emesis in the Least Shrew” value in series [1] is given as “produce emesis”.

In the case of `CCCCC[C@@H](/C=C/[C@@H]1[C@@H](C/C=C\CCCC(=O)O)[C@@H]2C[C@H]1OO2)OO` [PGG2], the “emesis in the Least Shrew” value in series [1] is listed as “produce emesis”.

Turning to `CCCCC[C@H](O)/C=C/[C@@H]1[C@H]2C/C(=C/CCCC(=O)O)O[C@H]2C[C@H]1O` [PGI2], the “emesis in the Least Shrew” value in series [1] is recorded as “non-emetic”.

Turning to `CCCCC/C=C\C/C=C\C/C=C\C/C=C\CCCC(=O)O` [arachidonic acid], in series [1], the “emesis in the Least Shrew” value is “produce emesis”.

For the molecule “SP: tachykinin undecapeptide, nonselective NK1 receptor agonist, purchased from Sigma/RBI”, the emetic activity entry in series [2] (10 mg/kg i.p.) and in series [2] (25 mg/kg i.p.) was “inactive” throughout. The “percentage of shrews vomiting” value in series [2] (50 mg/kg i.p.) stood at 82%; in series [2] (100 mg/kg i.p.), 78%. The “increase in the frequency of vomiting vs vehicle control” value in series [2] (50 mg/kg i.p.) stood at 382%; in series [2] (100 mg/kg i.p.) it was 322%. Also, the “other overt behavioral effect (e.g. scratching)” value in series [2] (at the doses tested, 10-100 mg/kg i.p.) is on record as “no other overt behavioral effect”. Besides, the “onset of first emesis after injection” value in series [2] (i.p. agonist injection) is 1 to 2 min. Further, the “time for brain stem SP-tissue level to attain maximal levels” value in series [3] stood at 15 min. Moreover, the “decrease of basal frontal cortex SP concentration” value in series [3] (5 min) was 34%; in series [3] (15 min) it was 68%; in series [3] (30 min), 89%. Besides, the “increase of basal SP blood serum level” value in series [3] (5 min post-injection) is reported as 3488 fold. Moreover, the “increase of brain stem SP over basal level” value in series [3] (5 min post-injection) was 156%; in series [3] (15 min post-injection), 287%. For the same molecule, the “brain stem SP level” value in series [3] (30 min) was “returned to basal tissue level”. For the same molecule, the “SP blood serum level” value in series [3] (by 10 min) was “rapidly declined”. Moreover, in series [3] (within 5 min), the “duodenal SP tissue level increase over basal levels” value was 1883%. For the same molecule, the “jejunal SP tissue level increase over basal level” value in series [3] (within 5 min) worked out at 2133%.

The values above are taken from US20110093959A1, “CRYPTOTIS PARVA SCREENING MODEL FOR ANTIEMETIC POTENTIAL” (priority 2008, published 2011).
